Data reported in BindingDB's records for patent US9284322 (Research Triangle Institute, 2016).

Biological target: Isoform Alpha-4-2 of Neuronal acetylcholine receptor subunit alpha-4 (Alpha-4-2)/Neuronal acetylcholine receptor subunit beta-2 (Rat, UniProt P09483+P12390)
Assay: Adult male rat cerebral cortices (Pelfreeze Biological, Rogers, Ark.) were homogenized in 39 volumes of ice-cold 50 mM Tris buffer (pH 7.4 at 4° C.) containing 120 mM NaCl, 5 mM KCl, 2 mM CaCl2, and 1 mM MgCl2 and sedimented at 37,000 g for 10 min at 4° C. The supernatant was discarded, the pellet resuspended in the original volume of buffer, and the wash procedure repeated twice more. After the last centrifugation, the pellet was resuspended in 1/10 its original homogenization volume and stored at −80° C. until needed. […] Total and nonspecific bindings were determined in the presence of vehicle and 300 μM (−)-ni
Conditions: 25 °C

Chain of Isoform Alpha-4-2 of Neuronal acetylcholine receptor subunit alpha-4 (Alpha-4-2)/Neuronal acetylcholine receptor subunit beta-2 (P09483 as listed by the source): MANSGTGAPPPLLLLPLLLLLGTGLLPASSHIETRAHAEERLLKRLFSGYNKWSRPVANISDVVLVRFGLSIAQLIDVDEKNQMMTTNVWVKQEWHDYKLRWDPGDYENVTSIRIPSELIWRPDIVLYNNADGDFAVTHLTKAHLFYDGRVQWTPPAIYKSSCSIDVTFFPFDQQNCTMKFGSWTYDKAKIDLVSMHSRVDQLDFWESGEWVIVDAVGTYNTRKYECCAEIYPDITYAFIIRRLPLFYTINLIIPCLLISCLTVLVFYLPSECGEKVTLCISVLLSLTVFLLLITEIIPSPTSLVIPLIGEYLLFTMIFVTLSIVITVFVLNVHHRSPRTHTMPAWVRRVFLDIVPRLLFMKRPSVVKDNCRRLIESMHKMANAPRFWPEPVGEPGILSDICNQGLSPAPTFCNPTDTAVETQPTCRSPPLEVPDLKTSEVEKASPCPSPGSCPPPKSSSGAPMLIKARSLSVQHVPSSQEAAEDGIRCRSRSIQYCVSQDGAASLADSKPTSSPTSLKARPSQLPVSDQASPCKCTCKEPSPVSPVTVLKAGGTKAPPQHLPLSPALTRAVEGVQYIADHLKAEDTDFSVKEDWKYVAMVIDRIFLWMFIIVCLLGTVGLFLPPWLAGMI
Chain of Isoform Alpha-4-2 of Neuronal acetylcholine receptor subunit alpha-4 (Alpha-4-2)/Neuronal acetylcholine receptor subunit beta-2 (P12390 whole entry, canonical isoform): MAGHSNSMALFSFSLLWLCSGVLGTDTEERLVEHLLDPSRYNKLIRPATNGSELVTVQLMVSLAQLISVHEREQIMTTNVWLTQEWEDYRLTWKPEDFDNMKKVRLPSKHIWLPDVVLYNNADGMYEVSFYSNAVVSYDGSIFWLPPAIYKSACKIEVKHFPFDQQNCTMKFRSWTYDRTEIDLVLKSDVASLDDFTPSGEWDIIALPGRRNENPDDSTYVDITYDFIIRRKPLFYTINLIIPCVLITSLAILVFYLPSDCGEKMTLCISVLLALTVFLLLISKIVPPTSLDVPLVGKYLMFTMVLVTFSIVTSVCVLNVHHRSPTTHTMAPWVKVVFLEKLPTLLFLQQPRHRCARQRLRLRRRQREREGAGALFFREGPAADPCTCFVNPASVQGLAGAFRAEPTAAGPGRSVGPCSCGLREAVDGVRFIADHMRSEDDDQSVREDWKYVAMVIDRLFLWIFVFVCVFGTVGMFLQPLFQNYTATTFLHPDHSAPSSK

Structure (SMILES) | Ki [nM]
c1ncc(-c2cncc(C3CC4CCC3N4)c2)cn1 (stereo not drawn) [US9284322, Table 7, Compound 1] | 0.12
Fc1ncc(C2CC3CCC2N3)cc1-c1cncnc1 (stereo not drawn) [US9284322, Table 7, Compound 2] | 0.84
Clc1ncc(C2CC3CCC2N3)cc1-c1cncnc1 (stereo not drawn) [US9284322, Table 7, Compound 3] | 0.32
